system: Echinochloa oryzicola Vasing; test: Test Example 1: herbicidal effects in paddy field soil treatment; format: in vivo; design: scale not given here; settings: 1000 g active ingredient per hectare, 21st day after treatment
Protocol: (§1) 100-cm^2 plastic pots were filled with paddy field soil. After puddling and leveling, seeds of Echinochloa oryzicola Vasing, Monochoria vaginalis (Burm. f.) Presl var. plantaginea (Roxb.) Solms-Laub., and Scirpus juncoides Roxb. var. ohwianus. T. Koyama were sowed in the pots, and the soil was waterlogged to a water depth of 3 cm. On the next day, a wettable powder formulation prepared according to Formulation Example 1 was diluted with water, and the dilution was added dropwise onto the water surface. The amount of application was an amount equivalent to 1000 g of the active ingredient per hectare. Thereafter, the plants were grown in a greenhouse, and on the 21st day after the treatment, the herbicidal effects were investigated according to the criteria described in Table 71.
(§2) In addition, comparative compound A, comparative compound B, comparative compound C, and comparative compound D in the tables represent Compound Nos. 70, 34, 32, and 31, respectively, as described in EP-283261. The structural formulas of these compounds are presented below.

| Structure (SMILES) | Herbicidal effect index, Echinochloa oryzicola |
| --- | --- |
| Cc1ccc2cc(C(=O)C3=C(O)CCCC3=O)c(=O)n(C)c2n1 [II-121] | 5 |
| Cn1c(=O)c(C(=O)C2=C(O)CCCC2=O)cc2ccc(C(F)F)nc21 [II-131] | 5 |
| CCn1c(=O)c(C(=O)C2=C(O)CCCC2=O)cc2c(Cl)cccc21 [I-157] | 5 |
| Cc1ccccc1-n1c(=O)c(C(=O)C2=C(O)CCCC2=O)cc2cccnc21 [II-48] | 5 |
| O=C1CCCC(O)=C1C(=O)c1cc2ccc(C(F)(F)Cl)nc2n(-c2ccccc2)c1=O [II-143] | 5 |

system: Scirpus juncoides Roxb. var. ohwianus. T. Koyama; test: as above; format: in vivo; design: scale not given here; settings: 1000 g active ingredient per hectare, 21st day after treatment
Protocol: as §1, §2

| Structure (SMILES) | Herbicidal effect index, Scirpus juncoides |
| --- | --- |
| Cc1ccc2cc(C(=O)C3=C(O)CCCC3=O)c(=O)n(C)c2n1 [II-121] | 5 |
| Cn1c(=O)c(C(=O)C2=C(O)CCCC2=O)cc2ccc(C(F)F)nc21 [II-131] | 5 |
| CCn1c(=O)c(C(=O)C2=C(O)CCCC2=O)cc2c(Cl)cccc21 [I-157] | 3 |
| Cc1ccccc1-n1c(=O)c(C(=O)C2=C(O)CCCC2=O)cc2cccnc21 [II-48] | 5 |
| O=C1CCCC(O)=C1C(=O)c1cc2ccc(C(F)(F)Cl)nc2n(-c2ccccc2)c1=O [II-143] | 5 |

system: Monochoria vaginalis (Burm. f.) Presl var. plantaginea (Roxb.) Solms-Laub.; test: as above; format: in vivo; design: scale not given here; settings: 1000 g active ingredient per hectare, 21st day after treatment
Protocol: as §1, §2

| Structure (SMILES) | Herbicidal effect index, Monochoria vaginalis |
| --- | --- |
| Cc1ccc2cc(C(=O)C3=C(O)CCCC3=O)c(=O)n(C)c2n1 [II-121] | 5 |
| Cn1c(=O)c(C(=O)C2=C(O)CCCC2=O)cc2ccc(C(F)F)nc21 [II-131] | 5 |
| CCn1c(=O)c(C(=O)C2=C(O)CCCC2=O)cc2c(Cl)cccc21 [I-157] | 4 |
| Cc1ccccc1-n1c(=O)c(C(=O)C2=C(O)CCCC2=O)cc2cccnc21 [II-48] | 5 |
| O=C1CCCC(O)=C1C(=O)c1cc2ccc(C(F)(F)Cl)nc2n(-c2ccccc2)c1=O [II-143] | 5 |

system: Setaria viridis; test: Test Example 2: herbicidal effects in farmland soil treatment; format: in vivo; design: scale not given here; settings: 1000 g active ingredient per hectare, 21st day after treatment

| Structure (SMILES) | Herbicidal effect index, Setaria viridis |
| --- | --- |
| Cn1c(=O)c(C(=O)C2=C(O)CCCC2=O)cc2ccc(C(F)F)nc21 [II-131] | 3 |
| Cc1ccccc1-n1c(=O)c(C(=O)C2=C(O)CCCC2=O)cc2cccnc21 [II-48] | 5 |
| O=C1CCCC(O)=C1C(=O)c1cc2ccc(C(F)(F)Cl)nc2n(-c2ccccc2)c1=O [II-143] | 5 |

system: Setaria viridis; test: Test Example 3: herbicidal effects in farmland foliar treatment; format: in vivo; design: scale not given here; settings: 1000 g active ingredient per hectare, 14th day after treatment

| Structure (SMILES) | Herbicidal effect index, Setaria viridis |
| --- | --- |
| Cc1ccc2cc(C(=O)C3=C(O)CCCC3=O)c(=O)n(C)c2n1 [II-121] | 3 |
| Cn1c(=O)c(C(=O)C2=C(O)CCCC2=O)cc2ccc(C(F)F)nc21 [II-131] | 4 |
| Cc1ccccc1-n1c(=O)c(C(=O)C2=C(O)CCCC2=O)cc2cccnc21 [II-48] | 5 |
| O=C1CCCC(O)=C1C(=O)c1cc2ccc(C(F)(F)Cl)nc2n(-c2ccccc2)c1=O [II-143] | 5 |

system: Echinochloa crus-galli (L.) P. Beauv. var. crus-galli; test: as above; format: in vivo; design: scale not given here; settings: 1000 g active ingredient per hectare, 14th day after treatment
Protocol: (§3) 80-cm^2 plastic pots were filled with farmland soil. Seeds of Echinochloa crus-galli (L.) P. Beauv. var. crus-galli, Abutilon theophrasti medicus, and Amaranthus retroflexus were sowed in the pots, and the plants were grown for two weeks in a greenhouse. A wettable powder formulation prepared according to Formulation Example 1 was diluted with water, and the dilution was applied by foliar treatment by spraying with a small sprayer over the whole plant from the upper part, in an amount equivalent to 1000 liters per hectare, such that 1000 g of the active ingredient was applied per hectare. Thereafter, the plants were grown in a greenhouse, and on the 14th day after the treatment, the herbicidal effects were investigated according to the criteria described in Table 71 shown above.

| Structure (SMILES) | Herbicidal effect index, Echinochloa crus-galli |
| --- | --- |
| Cc1ccc2cc(C(=O)C3=C(O)CCCC3=O)c(=O)n(C)c2n1 [II-121] | 4 |
| Cn1c(=O)c(C(=O)C2=C(O)CCCC2=O)cc2ccc(C(F)F)nc21 [II-131] | 4 |
| Cc1ccccc1-n1c(=O)c(C(=O)C2=C(O)CCCC2=O)cc2cccnc21 [II-48] | 5 |
| O=C1CCCC(O)=C1C(=O)c1cc2ccc(C(F)(F)Cl)nc2n(-c2ccccc2)c1=O [II-143] | 5 |

system: Amaranthus retroflexus; test: as above; format: in vivo; design: scale not given here; settings: 1000 g active ingredient per hectare, 14th day after treatment
Protocol: as §3

| Structure (SMILES) | Herbicidal effect index, Amaranthus retroflexus |
| --- | --- |
| Cc1ccc2cc(C(=O)C3=C(O)CCCC3=O)c(=O)n(C)c2n1 [II-121] | 5 |
| Cn1c(=O)c(C(=O)C2=C(O)CCCC2=O)cc2ccc(C(F)F)nc21 [II-131] | 5 |
| Cc1ccccc1-n1c(=O)c(C(=O)C2=C(O)CCCC2=O)cc2cccnc21 [II-48] | 5 |
| O=C1CCCC(O)=C1C(=O)c1cc2ccc(C(F)(F)Cl)nc2n(-c2ccccc2)c1=O [II-143] | 5 |

system: Abutilon theophrasti medicus; test: as above; format: in vivo; design: scale not given here; settings: 1000 g active ingredient per hectare, 14th day after treatment
Protocol: as §3

| Structure (SMILES) | Herbicidal effect index, Abutilon theoprasti |
| --- | --- |
| Cc1ccc2cc(C(=O)C3=C(O)CCCC3=O)c(=O)n(C)c2n1 [II-121] | 5 |
| Cn1c(=O)c(C(=O)C2=C(O)CCCC2=O)cc2ccc(C(F)F)nc21 [II-131] | 5 |
| Cc1ccccc1-n1c(=O)c(C(=O)C2=C(O)CCCC2=O)cc2cccnc21 [II-48] | 5 |
| O=C1CCCC(O)=C1C(=O)c1cc2ccc(C(F)(F)Cl)nc2n(-c2ccccc2)c1=O [II-143] | 5 |

system: Amaranthus retroflexus; test: Test Example 2: herbicidal effects in farmland soil treatment; format: in vivo; design: scale not given here; settings: 1000 g active ingredient per hectare, 21st day after treatment
Protocol: as §3, with “of” for “of Echinochloa crus-galli (L.) P. Beauv. var. crus-galli,”, “medicus” for “medicus,”, “soil was covered.” for “the plants were grown for two weeks in a greenhouse.”, “uniformly sprayed on the soil surface” for “applied by foliar treatment by spraying”, “sprayer,” for “sprayer over the whole plant from the upper part,”, “21st” for “14th”

| Structure (SMILES) | Herbicidal effect index, Amaranthus retroflexus |
| --- | --- |
| Cn1c(=O)c(C(=O)C2=C(O)CCCC2=O)cc2ccc(C(F)F)nc21 [II-131] | 5 |
| Cc1ccccc1-n1c(=O)c(C(=O)C2=C(O)CCCC2=O)cc2cccnc21 [II-48] | 5 |
| O=C1CCCC(O)=C1C(=O)c1cc2ccc(C(F)(F)Cl)nc2n(-c2ccccc2)c1=O [II-143] | 5 |

system: Abutilon theophrasti medicus; test: as above; format: in vivo; design: scale not given here; settings: 1000 g active ingredient per hectare, 21st day after treatment
Protocol: as §3, with “of” for “of Echinochloa crus-galli (L.) P. Beauv. var. crus-galli,”, “medicus” for “medicus,”, “soil was covered.” for “the plants were grown for two weeks in a greenhouse.”, “uniformly sprayed on the soil surface” for “applied by foliar treatment by spraying”, “sprayer,” for “sprayer over the whole plant from the upper part,”, “21st” for “14th”

| Structure (SMILES) | Herbicidal effect index, Abutilon thophrasti |
| --- | --- |
| Cn1c(=O)c(C(=O)C2=C(O)CCCC2=O)cc2ccc(C(F)F)nc21 [II-131] | 5 |
| Cc1ccccc1-n1c(=O)c(C(=O)C2=C(O)CCCC2=O)cc2cccnc21 [II-48] | 4 |
| O=C1CCCC(O)=C1C(=O)c1cc2ccc(C(F)(F)Cl)nc2n(-c2ccccc2)c1=O [II-143] | 5 |

system: Echinochloa crus-galli; test: as above; format: in vivo; design: scale not given here; settings: 1000 g active ingredient per hectare, 21st day after treatment

| Structure (SMILES) | Herbicidal effect index, Echinochloa crus-galli |
| --- | --- |
| Cn1c(=O)c(C(=O)C2=C(O)CCCC2=O)cc2ccc(C(F)F)nc21 [II-131] | 4 |
| Cc1ccccc1-n1c(=O)c(C(=O)C2=C(O)CCCC2=O)cc2cccnc21 [II-48] | 5 |
| O=C1CCCC(O)=C1C(=O)c1cc2ccc(C(F)(F)Cl)nc2n(-c2ccccc2)c1=O [II-143] | 5 |

From patent US8334236B2, “Ring-fused 2-pyridone derivatives and herbicides” (Kumiai Chemical Industry Co., Ltd., priority 2009, dated 2012)
